# According to US8936793B2, “Synthetic archaeal glycolipid adjuvants” (National Research Council of Canada, priority 2006, dated 2015):
# Columns and labels:
# [1] = test system: antigen specific EG.7 targets; assay: CTL activity in splenocytes of immunized mice, Cr51-assay; format: in vivo, C57BL/6 mice; conditions: 15 μg OVA s.c. 0 and 3 weeks; spleens 7 weeks after first immunization
# Protocol: To determine adjuvant activity, various synthetic archaeosomes with OVA entrapped (OVA-archaeosomes) were used to immunize female C57BL/6 mice on days 0 and 21 (6-8 weeks old on first injection). Injections were subcutaneous at the tail base with 0.1 ml PBS containing 15 μg OVA entrapped in 0.2-0.63 mg lipids. Blood samples were collected from the tail vein for anti-OVA IgG/IgM antibody titration done by ELISA (13). In some cases faecal extracts were assayed for IgA (and IgG) to assess mucosal responses following systemic immunizations. Fresh faeces (about 30 mg dry weight) were collected from 4 mice/group, and extracted by adding 0.5 ml of phosphate buffered saline (pH 7.0) containing 10% fetal calf serum and 0.1% sodium azide. Homogenized samples were centrifuged and Elisa measured anti OVA antibody in supernatants. Spleens were collected to determine CTL activity using the Cr^51-assay with specific and non-specific targets EG.7 and EL-4, respectively (14). In Elispot assays antigen-specific CD8^+ T cell activity was measured in splenic cells from immunized mice by determining the number of SIINFEKL stimulated IFN-γ-secreting cells per 5×10^5 splenic cells (15).
# [2] = test system: antigen-specific CD8+ T cell; assay: Antigen-specific CD8+ T cell activity in blood by tetramer assay; format: in vivo, C57BL/6J mice; conditions: glyco-archaeol/DPPG/chol (25/55/20, mol %); data not shown
# Protocol: Mice vaccinated with synthetic archaeosomes containing an appropriate antigen were protected from infection (FIG. 13). […] The lower CD8^+ T cell response observed for this latter archaeosome previously appears to be in part due to the shorter period from first injection to assay in FIG. 7C. In this example (FIG. 13), the antigen-specific CD8^+ T cell activity was measured in blood by tetramer assay and found to be about 30% as high in the maltotriose-A group compared to the gentiotriose-A group (data not shown).
# [3] = test system: Listeria monocytogenes (LM)-OVA construct; assay: Protection against LM-OVA challenge after vaccination, splenic CFU; format: in vivo; conditions: glyco-archaeol/DPPG/chol (25/55/20, mol %), FIG. 13
# Protocol: FIG. 13 illustrates protection against LM-OVA challenge after vaccination with OVA-adjuvant combinations. C57BL/6J mice were immunized on day 0 and 21 with 15 ug OVA entrapped in various synthetic archaeosomes composed of the respective synthetic glyco-archaeol/DPPG/chol (25/55/20, mol %). At 8 weeks, mice were challenged with 10^4 intravenous dose of Listeria monocytogenes (LM)-OVA construct. Mice were euthanized 3 days later. Mean±SEM of splenic colony forming units (CFU) is shown for each group.
# [4] = test system: Macrophages J774A.1; assay: Up-regulation of co-stimulatory molecule CD80 on APCs, flow cytometry; format: cell-based; conditions: 25 μg liposomes or archaeosomes 48 h; LPS 10 μg 24 h; anti-CD80-PE
# Protocol: Macrophages J774A.1 were incubated for 48 h with 25 μg of archaeosomes prior to staining and analysis by flow cytometry (Table 13). […] Immuno-activity was clearly ascribed to the synthetic glyco-archaeal lipid.
# [5] = incorporation of 36 mol % into archaeosomes; Sprott et al (23); cited from earlier work
compound,measurement,setting,value
CC(C)CCC[C@@H](C)CCC[C@@H](C)CCC[C@@H](C)CCOC[C@H](CO[C@@H]1O[C@H](CO)[C@@H](O[C@H]2O[C@H](CO)[C@@H](O[C@H]3O[C@H](CO)[C@@H](O)[C@H](O)[C@H]3O)[C@H](O)[C@H]2O)[C@H](O)[C@H]1O)OCC[C@H](C)CCC[C@H](C)CCC[C@H](C)CCCC(C)C [maltotriose-A],"CTL adjuvant activity, FIG. 3",[1],best adjuvant activity
same,"antigen-specific CD8+ T cell activity in blood, % as high as the gentiotriose-A group",[2],about 30%
same,protection from LM-OVA infection,[3],striking protection
Lipopolysaccharide,Mean fluorescence Intensity CD80,[4],33.2
"CC(C)CCCC(C)CCCC(C)CCCC(C)CCOCC(CO[C@@H]1O[C@H](CO[C@@H]2O[C@H](CO)[C@@H](O)[C@H](O)[C@H]2O)[C@@H](O)[C@H](O)[C@H]1O)OCCC(C)CCCC(C)CCCC(C)CCCC(C)C (stereo partly drawn) [DGAs, β-D-Glc-(1,6)-β-D-Glc-archaeol]",adjuvant activity,[5],striking decline in adjuvant activity
